# Results as given in patent US9193983B2, “Assays for mutagenesis detection” (The Regents of the University of California, priority 2007, dated 2015).
# Columns and labels:
# [1] = tested on: S. cerevisiae strain RS112; test: well-based DEL assay (MTS colorimetric, 96/384-well): genotoxicity and cytotoxicity
# Excerpt: (§1) The RS112 yeast DEL assay tester strain of Saccharomyces cerevisiae contains a plasmid with an internal fragment of the HIS3 gene integrated at the genomic HIS3 locus, yielding an integrative disruption of the HIS3 gene. This disruption results in two copies of the HIS3 gene, each copy having one terminal deletion. Recombination between the two his3 deletion alleles results in reversion to HIS3^+ and growth in the absence of histidine. This recombination event leads to a 6 kb DNA deletion comprising the integrated plasmid leading to deletion (DEL) events. The assay utilizing DEL events involves overnight growth of a single colony of the RS112 strain and subsequent subculture with the presence or absence of the chemical being tested for 17 hours at 30° C. under constant shaking. Yeast are then plated onto SC medium to determine the number of survivors (individual colonies are counted) and onto SC-HIS medium to score for DEL events. The traditional DEL assay is very powerful if one is testing a limited number of chemicals but becomes impractical for screening large numbers of chemicals and chemical libraries.
# (§2) For 384-well plate format, 1 μl of yeast (˜100,000 cells) was pipetted into 8 microplate wells for each compound, four of which containing 70 μl SC media and four containing 70 μl SC-HIS media; each well was supplemented with 14 μl of MTS and 5 μl of compound. For 96-well plate format, the above was consistent except media, MTS, and compound volumes were 100 μl, 20 μl, and 7 μl, respectively. Control wells were treated with water in lieu of compound. The outermost columns of the 96-well plate and outer two columns of each 384-well plate were excluded from experimentation lest edge evaporative effects alter the data. Plates were incubated at 30° C. at normal atmosphere during which yeast were grown in the presence of the tested compound and 490 nm absorbance was measured 10-18 hr later using a Molecular Devices SpectraMax M5 microplate reader (Sunnyvale, Calif.).
# (§3) Survival for a given compound treatment was quantified by averaging the absorbance across the four treated wells in SC media and dividing that by the average absorbance of control wells. DEL induction was quantified by dividing the absorbance of each SC-HIS well by the corresponding paired SC well. Thus for each compound done in quadruplicate, each plate contains a set of 4 different measurements of DEL induction. For each compound, ratio of the average DEL induction in treated versus control cultures was taken as the fold-increase in DEL events (HIS^+ growth). A Student's t-test was performed on the 4 measurements of DEL induction and the same measurements recorded from control wells to determine significance of the fold-increase. It should be noted that this value of fold-increase is analyzed statistically for significance and not absolute; thus two different chemicals may have the same fold-increase but varying levels of significance. In plots and tables, data from a single experiment performed in quadruplicate is presented; all experiments were repeated independently in at least 3 separate experiments in both 96 and 384-well plate formats.
# Saccharomyces cerevisiae [2] = conditions: cited from earlier work; for induction of DNA deletions: previous experiments
# Saccharomyces cerevisiae [3] = test: traditional plate-based yeast DEL assay (DNA deletions); assay type: cell-based; conditions: 1.4 mM; background about 20 DEL events per 100,000 cells
# Experimental: In one embodiment, yeast cells (Saccharomyces cerevisiae) having a disruption of the his gene as the DEL selection marker are treated with test agents in 25 ml tubes and then plated for about 48 h at 30° C. Following treatment the cells are washed, for example, with PBS, and sonicated to assure dissociation of the cells into a single-cell suspension. The cells are then plated at an appropriate dilution (see below) onto medium lacking histidine as well as standard medium containing histidine. The histidine-lacking medium is used to determine recombination frequency. Standard medium (medium containing histidine) is used to determine the overall toxicity of the test agent.
# [4] = well-based DEL assay (MTS colorimetric, 96/384-well): genotoxicity and cytotoxicity; conditions: Saccharomyces cerevisiae
# Excerpt: as §1, §2, §3
# Saccharomyces cerevisiae [5] = conditions: Angeli's salt as HNO donor; cited from earlier work
# [6] = concentrations as low as 1 μM (~0.3 μg/ml)
smiles,measurement,setting,value
"[K+].[K+].[O]=[Cr](=[O])([O-])[O][Cr](=[O])(=[O])[O-] [Cr (6), K2Cr2O7]",Cytotoxicity (% survival),[1]; 0.2 mM final in well,32.1%
same,Cytotoxicity significance,[1]; 0.2 mM final in well,*** (*** (p < 0.005))
same,DEL (fold increase),[1]; 0.2 mM final in well,2.13 fold
same,DEL significance,[1]; 0.2 mM final in well,*** (*** (p < 0.005))
same,Cytotoxicity (% survival),[1]; 0.7 mM final in well,9.91%
same,Cytotoxicity significance,[1]; 0.7 mM final in well,*** (*** (p < 0.005))
same,DEL (fold increase),[1]; 0.7 mM final in well,3.78 fold
same,DEL significance,[1]; 0.7 mM final in well,*** (*** (p < 0.005))
same,Cytotoxicity (% survival),[1]; 1.4 mM final in well,10.8%
same,Cytotoxicity significance,[1]; 1.4 mM final in well,*** (*** (p < 0.005))
same,DEL (fold increase),[1]; 1.4 mM final in well,3.12 fold
same,DEL significance,[1]; 1.4 mM final in well,*** (*** (p < 0.005))
same,induction of the DEL assay,[1]; between 0.2 and 1.4 mM (~20-140 μg/ml),very potent induction of the DEL assay
same,survival,[1]; with increased dose between 0.2 and 1.4 mM (~20-140 μg/ml),severely decreased survival
same,induction of DNA deletions,Saccharomyces cerevisiae [2],induced DNA deletions
"[Cl][Cr]([Cl])[Cl] [Cr (3), CrCl3]",Cytotoxicity (% survival),[1]; 0.2 mM final in well,110.1%
same,DEL (fold increase),[1]; 0.2 mM final in well,0.93 fold
same,DEL significance,[1]; 0.2 mM final in well,ns (ns—not significant (p > 0.05))
same,Cytotoxicity (% survival),[1]; 0.7 mM final in well,85.8%
same,Cytotoxicity significance,[1]; 0.7 mM final in well,** (** (p < 0.01))
same,DEL (fold increase),[1]; 0.7 mM final in well,0.98 fold
same,DEL significance,[1]; 0.7 mM final in well,ns (ns—not significant (p > 0.05))
same,DEL recombination,[1]; 1.4 mM (~222 μg/ml),significant increase in DEL recombination
same,Cytotoxicity (% survival),[1]; 1.4 mM final in well,36.8%
same,Cytotoxicity significance,[1]; 1.4 mM final in well,*** (*** (p < 0.005))
same,DEL (fold increase),[1]; 1.4 mM final in well,1.44 fold
same,DEL significance,[1]; 1.4 mM final in well,*** (*** (p < 0.005))
same,genotoxic events,[1]; 0.2 (~32 μg/ml) or 0.7 mM (~111 μg/ml),did not induce any genotoxic events
same,lowest detectable concentration (significant genotoxicity),[1]; well-based format,1.4 mM
same,"DEL events per 100,000 cells","Saccharomyces cerevisiae [2]; 1.4 mM (~222 μg/ml), plate-based assay, previously observed","33.6 DEL events per 100,000 cells"
same,induction of DNA deletions,Saccharomyces cerevisiae [2],induced DNA deletions
same,lowest dose which induced significant genotoxicity,Saccharomyces cerevisiae [2]; traditional agar plate version,0.7 mM
same,increase above background,Saccharomyces cerevisiae [3],approximately 13.6 cells
"O=C(O)CCCc1ccc(N(CCCl)CCCl)cc1 [Chlorambucil, chlorambucil]",viability at 1 μM,[4],82.4%
same,viability at 10 μM,[4],35.7%
same,viability at 30 μM,[4],20.5%
same,Cytotoxicity significance,[1]; 1 μM final in well,** (** (p < 0.01))
same,DEL (fold increase),[1]; 1 μM final in well,1.18 fold
same,DEL significance,[1]; 1 μM final in well,* (* (p < 0.05))
same,Cytotoxicity significance,[1]; 10 μM final in well,*** (*** (p < 0.005))
same,DEL (fold increase),[1]; 10 μM final in well,2.37 fold
same,DEL significance,[1]; 10 μM final in well,*** (*** (p < 0.005))
same,Cytotoxicity significance,[1]; 30 μM final in well,*** (*** (p < 0.005))
same,DEL (fold increase),[1]; 30 μM final in well,3.58 fold
same,DEL significance,[1]; 30 μM final in well,*** (*** (p < 0.005))
same,cytotoxicity,[1]; [6],significant genotoxicity and cytotoxicity
same,genotoxicity,[1]; [6],significant genotoxicity and cytotoxicity
same,DEL events (DNA deletions) induced by crosslinking agents,[1]; well-based DEL assay,significant increase in DEL events
N=O [HNO],induction of DNA deletions and recombination,Saccharomyces cerevisiae [2]; Angeli's salt as HNO donor,potent inducer of DNA deletions and recombination
same,genotoxicity,Saccharomyces cerevisiae [2]; under aerobic and anaerobic conditions,observed
same,induction of point mutations,Saccharomyces cerevisiae [5],negative
